Experimental data: the supplement of paper PMC10307832

Tests used:
Assay in all cases: relative viability (nuclei count vs DMSO), 5 days (fraction); higher = more cells survive
CAL-12T = tested on: CAL-12T
How it was run: (§1)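 Lung cancer cell lines were pin-tool dosed in 1536-well plates on the day after seeding, with either a lone drug or a fixed anchor-drug dose plus five library-drug doses (not always all listed) in √10 steps. Nuclei were counted on 4× images after 5 days. Relative viability is the ratio of treated-well to vehicle-well nuclei counts, with each value a median of duplicate plates.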

COR-L 105 = tested on: COR-L 105
How it was run: as §1

H3255 = tested on: H3255
How it was run: as §1

HARA = tested on: HARA
How it was run: as §1

HCC-15 = tested on: HCC-15
How it was run: as §1

HCC-366 = tested on: HCC-366
How it was run: as §1

LC-2-ad = tested on: LC-2-ad
How it was run: as §1

LU99A = tested on: LU99A
How it was run: as §1

NCI-H1395 = tested on: NCI-H1395
How it was run: as §1

NCI-H1666 = tested on: NCI-H1666
How it was run: as §1

NCI-H1734 = tested on: NCI-H1734
How it was run: as §1

NCI-H1944 = tested on: NCI-H1944
How it was run: as §1

NCI-H1975 = tested on: NCI-H1975
How it was run: as §1

NCI-H1993 = tested on: NCI-H1993
How it was run: as §1

NCI-H2228 = tested on: NCI-H2228
How it was run: as §1

NCI-H3122 = tested on: NCI-H3122
How it was run: as §1

NCI-H520 = tested on: NCI-H520
How it was run: as §1

NCI-H647 = tested on: NCI-H647
How it was run: as §1

NCI-H661 = tested on: NCI-H661
How it was run: as §1

NCI-H838 = tested on: NCI-H838
How it was run: as §1

PC-14 = tested on: PC-14
How it was run: as §1

PC-3 [JPC-3] = tested on: PC-3 [JPC-3]
How it was run: as §1

SK-LU-1 = tested on: SK-LU-1
How it was run: as §1

## O=C(O)CCCCC(CCSCc1ccccc1)SCc1ccccc1 (stereo not drawn) [CPI-613] + COc1cc2c(Oc3ccc(NC(=O)C4(C(=O)Nc5ccc(F)cc5)CC4)cc3F)ccnc2cc1OCCCN1CCOCC1 [Foretinib] (partner 0.25 µM)
CAL-12T; first compound 5 µM
  relative viability: 0.981
CAL-12T; first compound 15.81 µM
  relative viability: 0.89
CAL-12T; first compound 50 µM
  relative viability: 1.11
CAL-12T; first compound 158.11 µM
  relative viability: 0.142
CAL-12T; first compound 500 µM
  relative viability: 0.015
COR-L 105; first compound 5 µM
  relative viability: 1.11
COR-L 105; first compound 15.81 µM
  relative viability: 1.03
COR-L 105; first compound 50 µM
  relative viability: 1.02
COR-L 105; first compound 158.11 µM
  relative viability: 0.508
COR-L 105; first compound 500 µM
  relative viability: 0.16
H3255; first compound 5 µM
  relative viability: 0.887
H3255; first compound 15.81 µM
  relative viability: 0.685
H3255; first compound 50 µM
  relative viability: 0.89
H3255; first compound 500 µM
  relative viability: 0.785
HARA; first compound 15.81 µM
  relative viability: 0.778
HARA; first compound 50 µM
  relative viability: 0.923
HARA; first compound 158.11 µM
  relative viability: 0.51
HARA; first compound 500 µM
  relative viability: 0.0068
HCC-15; first compound 5 µM
  relative viability: 0.974
HCC-15; first compound 15.81 µM
  relative viability: 1
HCC-15; first compound 50 µM
  relative viability: 1.01
HCC-15; first compound 158.11 µM
  relative viability: 0.236
HCC-15; first compound 500 µM
  relative viability: 0.039
HCC-366; first compound 5 µM
  relative viability: 0.963
HCC-366; first compound 15.81 µM
  relative viability: 0.962
HCC-366; first compound 50 µM
  relative viability: 0.989
HCC-366; first compound 158.11 µM
  relative viability: 0.322
HCC-366; first compound 500 µM
  relative viability: 0.0079
LC-2-ad; first compound 5 µM
  relative viability: 0.842
LC-2-ad; first compound 15.81 µM
  relative viability: 0.796
LC-2-ad; first compound 50 µM
  relative viability: 0.957
LC-2-ad; first compound 158.11 µM
  relative viability: 0.434
LC-2-ad; first compound 500 µM
  relative viability: 0.0582
LU99A; first compound 5 µM
  relative viability: 0.83
LU99A; first compound 15.81 µM
  relative viability: 0.776
LU99A; first compound 50 µM
  relative viability: 0.733
LU99A; first compound 158.11 µM
  relative viability: 0.461
LU99A; first compound 500 µM
  relative viability: 0.112
NCI-H1395; first compound 5 µM
  relative viability: 0.973
NCI-H1395; first compound 15.81 µM
  relative viability: 0.971
NCI-H1395; first compound 50 µM
  relative viability: 0.916
NCI-H1395; first compound 158.11 µM
  relative viability: 0.94
NCI-H1395; first compound 500 µM
  relative viability: 0.961
NCI-H1666; first compound 5 µM
  relative viability: 0.944
NCI-H1666; first compound 15.81 µM
  relative viability: 0.901
NCI-H1666; first compound 50 µM
  relative viability: 0.971
NCI-H1666; first compound 158.11 µM
  relative viability: 0.397
NCI-H1666; first compound 500 µM
  relative viability: 0.206
NCI-H1734; first compound 5 µM
  relative viability: 0.792
NCI-H1734; first compound 15.81 µM
  relative viability: 0.984
NCI-H1734; first compound 50 µM
  relative viability: 0.859
NCI-H1734; first compound 158.11 µM
  relative viability: 0.332
NCI-H1734; first compound 500 µM
  relative viability: 0.104
NCI-H1944; first compound 5 µM
  relative viability: 0.923
NCI-H1944; first compound 15.81 µM
  relative viability: 0.878
NCI-H1944; first compound 50 µM
  relative viability: 0.967
NCI-H1944; first compound 158.11 µM
  relative viability: 0.649
NCI-H1944; first compound 500 µM
  relative viability: 0.0567
NCI-H1975; first compound 5 µM
  relative viability: 0.943
NCI-H1975; first compound 15.81 µM
  relative viability: 0.964
NCI-H1975; first compound 50 µM
  relative viability: 0.963
NCI-H1975; first compound 158.11 µM
  relative viability: 0.713
NCI-H1975; first compound 500 µM
  relative viability: 0.151
NCI-H1993; first compound 5 µM
  relative viability: 0.829
NCI-H1993; first compound 15.81 µM
  relative viability: 0.78
NCI-H1993; first compound 50 µM
  relative viability: 0.961
NCI-H1993; first compound 158.11 µM
  relative viability: 0.509
NCI-H1993; first compound 500 µM
  relative viability: 0.452
NCI-H2228; first compound 5 µM
  relative viability: 0.719
NCI-H2228; first compound 15.81 µM
  relative viability: 0.948
NCI-H2228; first compound 50 µM
  relative viability: 0.78
NCI-H2228; first compound 158.11 µM
  relative viability: 0.332
NCI-H2228; first compound 500 µM
  relative viability: 0.088
NCI-H3122; first compound 5 µM
  relative viability: 0.989
NCI-H3122; first compound 15.81 µM
  relative viability: 0.895
NCI-H3122; first compound 50 µM
  relative viability: 0.971
NCI-H3122; first compound 158.11 µM
  relative viability: 0.858
NCI-H3122; first compound 500 µM
  relative viability: 0.0742
NCI-H520; first compound 5 µM
  relative viability: 0.755
NCI-H520; first compound 15.81 µM
  relative viability: 0.784
NCI-H520; first compound 50 µM
  relative viability: 0.623
NCI-H520; first compound 158.11 µM
  relative viability: 0.523
NCI-H520; first compound 500 µM
  relative viability: 0.142
NCI-H647; first compound 5 µM
  relative viability: 0.992
NCI-H647; first compound 15.81 µM
  relative viability: 1.2
NCI-H647; first compound 50 µM
  relative viability: 1.15
NCI-H647; first compound 158.11 µM
  relative viability: 0.34
NCI-H647; first compound 500 µM
  relative viability: 0.0186
NCI-H661; first compound 5 µM
  relative viability: 0.982
NCI-H661; first compound 15.81 µM
  relative viability: 1.06
NCI-H661; first compound 50 µM
  relative viability: 0.841
NCI-H661; first compound 158.11 µM
  relative viability: 0.371
NCI-H661; first compound 500 µM
  relative viability: 0.142
NCI-H838; first compound 5 µM
  relative viability: 0.98
NCI-H838; first compound 15.81 µM
  relative viability: 1.02
NCI-H838; first compound 50 µM
  relative viability: 1.03
NCI-H838; first compound 158.11 µM
  relative viability: 0.657
NCI-H838; first compound 500 µM
  relative viability: 0.116
PC-14; first compound 5 µM
  relative viability: 0.953
PC-14; first compound 15.81 µM
  relative viability: 0.862
PC-14; first compound 50 µM
  relative viability: 0.852
PC-14; first compound 158.11 µM
  relative viability: 0.845
PC-14; first compound 500 µM
  relative viability: 0.991
PC-3 [JPC-3]; first compound 5 µM
  relative viability: 0.973
PC-3 [JPC-3]; first compound 15.81 µM
  relative viability: 0.899
PC-3 [JPC-3]; first compound 50 µM
  relative viability: 0.916
PC-3 [JPC-3]; first compound 158.11 µM
  relative viability: 0.163
PC-3 [JPC-3]; first compound 500 µM
  relative viability: 0.139
SK-LU-1; first compound 5 µM
  relative viability: 0.875
SK-LU-1; first compound 15.81 µM
  relative viability: 0.754
SK-LU-1; first compound 50 µM
  relative viability: 0.626
SK-LU-1; first compound 158.11 µM
  relative viability: 0.282
SK-LU-1; first compound 500 µM
  relative viability: 0.092
